Test results reported in patent US4912102A, “Analogs of naphtho[1,2-β] [1,4] thiazepin-4(5H)-one” (Hoffmann-La Roche Inc., priority 1988, dated 1990).
Where a name gives a salt, the structure may show the parent alone. Read-outs that look alike come from different tables or passages of the source.

Columns and labels:
[1] = test system: lipid peroxidation in liposomes prepared from native rat cardiac lipid; assay: Anti-peroxidative activity (superoxide-dependent, iron-promoted lipid peroxidation, MDA-like products); format: biochemical; conditions: for Anti-Peroxidative Activity % Inhibition (1 μM) / IC50: 60 minutes at 37° C.
Experimental: An in vitro assay system to measure antiperoxidative activity is done in two steps: (A) lipid peroxidation is triggered by a free-radical generating system that replicates the superoxide-dependent, iron-promoted Haber-Weiss reaction, and (B) peroxidation is measured spectrophotometrically as the production of malondialdehyde-like products (MDA). Liposomes prepared from the native rat cardiac lipid are incubated with hypoxanthine, xanthine oxidase, and Fe· ADP chelate, and a test substance or buffer in glass tubes for 60 minutes at 37° C. The amount of peroxidation is determined by adding a thiobarbituric acid-reaction mixture to the tubes, heating to 80° C. for 30 minutes and reading the pink adduct at 530 nm.

[2] = test system: Guinea Pig Ileal Longitudinal Smooth Muscle; assay: Inhibition of K+-induced tonic contraction, guinea pig ileum assay (calcium channel blocking activity); format: cell-based; conditions: for activity in the guinea pig ileum test: doses up to 10^-4 M; for IC50: tonic contraction, 80 mM K+ challenge, 37° C., read-out: Inhibition of K^+-Induced Contractile Responses, IC50, Tonic
Experimental: Male guinea-pigs weighing from 300-400 grams were stunned and bled. The abdomen was opened and 10-15 cm of terminal ileum was carefully removed and cleaned and placed in Tyrode's Solution of the following composition: NaCl (8 g/l), KCl (0.2 g/l), MgCl2 (0.1 g/l), CaCl2 (0.2 g/l). NaH2 PO4 (0.05 g/l), NaHCO3 (1.0 g/l) and Glucose (1 g/l). The solution was maintained at 37° C. and gassed with 95% O2 and 5% CO2. Portions of the ileum were placed over a glass rod, a shallow incision was made the length of the mesenteric attachment just severing the outer-longitudinal muscle layer. The longitudinal muscle was separated from the underlying circular muscle by gentle dissection (Rang. H. P. Annals. of New York Academy of Science, vol. 144, page 756, 1964). The tissue was fixed at one end to a tissue holder, the other end was connected by a thread to a force transducer and suspended in a muscle bath containing Tyrode's Solution maintained at 37° C. and gassed with 95% O2 and 5% CO2. An initial tension of 500 mg was applied and the tissue allowed to equilibrate for 60 minutes prior to the start of the study. During this period the tissue was washed every 16 minutes. Each preparation, at 16 minute intervals, was challenged with KCl sufficient to yield a bath K+ concentration of 80 mMK for 2 minutes, then washed with fresh solution. The 16 minute interval between K+ challenges was maintained throughout the study. Upon stabilization of the responses to the K+ challenge the test compound (potential calcium entry antagonist) was introduced into the bath 2 minutes prior to and during the 2 minute exposure to K+ after which the bath was cleared and washed with fresh solution. Logarithmically increasing doses (up to 10^-4 M) of the potential antagonist were administered as the study progressed. The measure of a compound's ability to inhibit the tonic contraction of muscle is a measure of its activity as a calcium channel blocking agent.

SMILES | IC50 [1] [µM] | IC50 ([2]; Cavia porcellus) [µM] | activity in the anti-peroxidative test [1] | activity in the guinea pig ileum test [2] | further results
COc1ccc([C@@H]2Sc3c(ccc4ccccc34)N(CCN(C)C)C(=O)[C@@H]2OC(=O)C2(C)CCc3c(cc(C(C)C)c(O)c3C(C)C)O2)cc1 (relative stereo) [Example 15 isomer "A", [(±)-cis-3(2alpha or 2beta)]-2,3-dihydro-3-[[[3,4-dihydro-6-hydroxy-2-methyl-5,7-bis(1-methylethyl)-2H-1-benzopyran-2-yl]carbonyl]oxy]-5-[2-(dimethylamino)ethyl]-2-(4-methoxyphenyl)naphtho[1,2-b][1,4]thiazepin-4(5H)-one] | < 1 | – | found to be active | – | Anti-Peroxidative Activity % Inhibition (1 μM) ([1]; listed as drawing 26, 1 µM): 62.6%
COc1ccc([C@@H]2Sc3c(ccc4ccccc34)N(CCN(C)C)C(=O)[C@@H]2OC(=O)C2(C)CCc3c(cc(C(C)C)c(O)c3C(C)C)O2)cc1 (relative stereo) [Example 15 isomer "B", [(±)-cis-3(2alpha or 2beta)]-2,3-dihydro-3-[[[3,4-dihydro-6-hydroxy-2-methyl-5,7-bis(1-methylethyl)-2H-1-benzopyran-2-yl]carbonyl]oxy]-5-[2-(dimethylamino)ethyl]-2-(4-methoxyphenyl)naphtho[1,2-b][1,4]thiazepin-4(5H)-one] | < 1 | – | – | – | Anti-Peroxidative Activity % Inhibition (1 μM) ([1]; listed as drawing 27, 1 µM): 66.7%
COc1ccc([C@@H]2Sc3c(ccc4ccccc34)N(CCN(C)C)C(=O)[C@@H]2OC(=O)C2(C)CCc3c(cc(C(C)C)c(O)c3C(C)C)O2)cc1 (single isomer, unassigned; (+)) [Example 17 isomer "A", [(+)-Cis-3(2α or 2β)]-2,3-dihydro-3-[[[3,4-dihydro-6-hydroxy-2-methyl-5,7-bis(1-methylethyl)-2H-1-benzopyran-2-yl]carbonyl]oxy]-5-[2-(dimethylamino)ethyl]-2-(4-methoxyphenyl)naphtho[1,2-b][1,4]thiazepin-4(5H)-one (E)-2-butenedioate monohydrate] | < 1 | – | found to be active | not found to be active | Anti-Peroxidative Activity % Inhibition (1 μM) ([1]; monohydrate): 58.5%
COc1ccc([C@@H]2Sc3c(ccc4ccccc34)N(CCN(C)C)C(=O)[C@@H]2OC(=O)C2(C)CCc3c(C)c(O)c(C)c(C)c3O2)cc1 (relative stereo) [Example 18, [(+)-cis-3(2alpha and 2beta)1-2,3-Dihydro-3-[[(3,4-dihydro-6-hydroxy-2,5,7,8-tetramethyl-2H-1-benzopyran-2-yl)carbonyl]oxy]-2-(4-methoxyphenyl)-5-[2-(dimethylamino)ethyl]naphtho[1,2-b][1,4]thiazepin-4(5H)-one] | – | – | active | not found to be active | –
COc1ccc([C@@H]2Sc3c(ccc4ccccc34)N(CCN(C)C)C(=O)[C@@H]2OC(=O)C2(C)CCc3c(cc(C(C)C)c(O)c3C(C)C)O2)cc1 (single isomer, unassigned; (+)) [Example 17 isomer "B", [(+)-cis-3(2alpha, or 2beta)]-2,3-dihydro-3-[[[3,4-dihydro-6-hydroxy-2-methyl-5,7-bis(1-methylethyl)-2H-1-benzopyran-2-yl]carbonyl]oxy]-5-[2-(dimethylamino)ethyl]-2-(4-methoxyphenyl)naphtho[1,2-b][1,4]thiazepin-4(5H)-one] | < 1 | – | – | not found to be active | Anti-Peroxidative Activity % Inhibition (1 μM) [1]: 59.6%
COc1ccc([C@@H]2Sc3c(ccc4ccccc34)N(CCN(C)C)C(=O)[C@@H]2OC(=O)c2ccc(OC)c(OC)c2)cc1 (relative stereo) [Example 4, (±)-cis-3-[(3,4-Dimethoxybenzoyl)oxy]-2,3-dihydro-5-[2-(dimethylamino)ethyl]-2-(4-methoxyphenyl)naphtho][1,2-b][1,4]thiazepin-4(5H)-one] | – | – | active | not found to be active | –
CNCCN1C(=O)[C@H](O)[C@H](c2ccc(OC)cc2)Sc2c1ccc1ccccc21 (relative stereo) [Compound C] | – | – | – | – | IC50 [2]: 7 µM
CNCCN1C(=O)[C@H](OC(C)=O)[C@H](c2ccc(OC)cc2)Sc2c1ccc1ccccc21 (relative stereo) [Compound D] | – | – | – | – | IC50 [2]: 3.5 µM
COc1ccc([C@@H]2Sc3c(ccc4ccccc34)N(CCN(C)C)C(=O)[C@@H]2OC(=O)c2cc(C(C)(C)C)c(O)c(C(C)(C)C)c2)cc1 (racemic) [Example 14, (±)-cis-2,3-Dihydro-3-[[4-hydroxy-3,5-bis(1,1-dimethylethyl)benzoyl]oxy]-2-(4-methoxyphenyl)-5-[2-(dimethylamino)ethyl]naphtho[1,2-b][1,4]thiazepin-4(5H)-one] | – | – | active | not found to be active | –

Now from value to compound, other results behind:

IC50 [1] [µM] | IC50 ([2]; Cavia porcellus) [µM] | SMILES | activity in the anti-peroxidative test [1] | activity in the guinea pig ileum test [2] | further results
– | 16 | COc1ccc([C@@H]2Sc3c(ccc4ccccc34)N(CCN(C)C)C(=O)[C@@H]2OC(=O)c2cccnc2)cc1 (relative stereo) [Compound M, (±)-cis-2,3-dihydro-2-(4-methoxyphenyl)-5-[2-(dimethylamino)ethyl]-3-[(3-pyridinylcarbonyl)oxy]naphtho[1,2-b][1,4]thiazepin-4(5H)-one dihydrochloride (4:5) hydrate] | – | – | –
– | 45 | COc1ccc([C@@H]2Sc3c(ccc4ccccc34)N(CCN(C)C)C(=O)[C@@H]2OC(=O)c2ccccc2O)cc1 (racemic) [Compound F, (±)-cis-2,3-dihydro-3-[(2-hydroxybenzoyl)oxy]-5-[2-(dimethylamino)ethyl]-2-(4-methoxyphenyl)naphtho[1,2-b][1,4]thiazepin-4(5H)-one hydrochloride] | – | – | –
– | 13 | COc1ccc([C@@H]2Sc3c(ccc4ccccc34)N(CCN(C)C)C(=O)[C@@H]2OC(=O)c2ccccc2OC(C)=O)cc1 (relative stereo) [Compound E, (±)-cis-3-[[(2-acetyloxy)benzoyl]oxy]-2,3-dihydro-5-[2-(dimethylamino)ethyl]-2-(4-methoxyphenyl)naphtho[1,2-b][1,4]thiazepin-4(5H)-one hydrochloride] | – | – | –
– | 70 | COc1ccc([C@@H]2Sc3c(ccc4ccccc34)N(CCN(C)C)C(=O)[C@@H]2OC(=O)c2cc(OC)c(OC)c(OC)c2)cc1 (racemic) [Compound J, (±)-cis-2,3-dihydro-2-(4-methoxyphenyl)-3-[(3,4,5-trimethoxybenzoyl)oxy]-5-[2-(dimethylamino)ethyl]naphtho [1,2-b][1,4]thiazepin-4(5H)-one hydrochloride] | – | – | –
